Drawing on ChEMBL document CHEMBL1137017, “In vitro antiviral activity and cross-resistance profile of PL-100, a novel protease inhibitor of human immunodeficiency virus type 1” (Antimicrob Agents Chemother, 2007), this text covers Activity for one compound.

The target of assay [1] is Protease (Human immunodeficiency virus 1) (UniProt Q9YQ12). Put plainly: Inhibition of HIV1 3B protease-mediated gag polyprotein processing in H9 cells assessed as decrease in p24 level by Western blotting. The class given is cell-based. In general terms: Immunoblotting shows a protein as a band on a membrane.
Sequence of Protease (Human immunodeficiency virus 1) (Q9YQ12 as listed by the source): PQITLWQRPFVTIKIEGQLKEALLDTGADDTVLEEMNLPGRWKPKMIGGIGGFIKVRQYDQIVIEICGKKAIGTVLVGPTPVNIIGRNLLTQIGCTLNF
In assay [2] the test system is Human immunodeficiency virus 1. Put plainly: Resistance index, ratio of EC50 for SQV-resistant HIV1 4596 carrying L10R/M46I/L63P/[…]/L90M mutation to EC50 for wild type HIV1 NL4-3 in HEK293 cells after 48 hrs by replication-deffective luciferase reporter gene-based phenotypic assay. The class given is functional. In general terms: A reporter such as luciferase makes a cellular process visible.

Structures are written as SMILES.

As for `COC(=O)N[C@H](C(=O)NCCCC[C@@H](CO)N(CC(C)C)S(=O)(=O)c1ccc(N)cc1)C(c1ccccc1)c1ccccc1` [PPL-100], the Activity entry in assay [1] is “Dose-dependent effect”; in assay [2], 1.2.
